PubChem BioAssay (NCI)
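48-hour exposure; five concentrations; linearly interpolated endpoints. TGI: concentration producing complete growth inhibition.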

Assays:
Experiment in all cases: NCI tumour cell line growth inhibition, 48 h
A549 NSCLC = system: A549 NSCLC
CCRF-CEM leukemia = system: CCRF-CEM leukemia
EKVX NSCLC = system: EKVX NSCLC
HCT-15 colon = system: HCT-15 colon
HL-60(TB) leukemia = system: HL-60(TB) leukemia
HOP-62 NSCLC = system: HOP-62 NSCLC
HOP-92 NSCLC = system: HOP-92 NSCLC
IGROV1 ovarian = system: IGROV1 ovarian
KM12 colon = system: KM12 colon
M14 melanoma = system: M14 melanoma
MCF7 breast = system: MCF7 breast
OVCAR-3 ovarian = system: OVCAR-3 ovarian
SF-268 CNS = system: SF-268 CNS
SF-295 CNS = system: SF-295 CNS
SN12C renal = system: SN12C renal
SNB-75 CNS = system: SNB-75 CNS
SR leukemia = system: SR leukemia
SW-620 colon = system: SW-620 colon
UACC-62 melanoma = system: UACC-62 melanoma
UO-31 renal = system: UO-31 renal

SMILES | TGI (A549 NSCLC) [µM] | TGI (CCRF-CEM leukemia) [µM] | TGI (EKVX NSCLC) [µM] | TGI (HCT-15 colon) [µM] | TGI (HL-60(TB) leukemia) [µM] | TGI (HOP-62 NSCLC) [µM] | TGI (HOP-92 NSCLC) [µM] | TGI (IGROV1 ovarian) [µM] | TGI (KM12 colon) [µM] | TGI (M14 melanoma) [µM] | TGI (MCF7 breast) [µM] | TGI (OVCAR-3 ovarian) [µM] | TGI (SF-268 CNS) [µM] | TGI (SF-295 CNS) [µM] | TGI (SN12C renal) [µM] | TGI (SNB-75 CNS) [µM] | TGI (SR leukemia) [µM] | TGI (SW-620 colon) [µM] | TGI (UACC-62 melanoma) [µM] | TGI (UO-31 renal) [µM]
C[C@@H](C[C@H]1OC(C)(C)O[C@@H]1C(C)(C)O)[C@H]1CC=C2[C@]3(C)[C@H](O)C[C@H]4C(C)(C)[C@H](O)CC[C@]4(C)[C@H]3CC[C@]21C | 15.2 | 14.1 | 21.9 | 14.9 | 7.88 | 20.7 | 13.6 | 21.1 | 16 | 17.6 | 12.8 | 15.4 | 31.4 | 18.2 | 6.51 | 19.8 | 11.3 | 19.4 | 34 | 23.7
CC1(C)CO[P@@](=S)(c2ccccn2)O[C@@H]1c1ccccc1 | > 100 | > 100 | > 100 | > 100 | > 100 | > 100 | > 100 | > 100 | > 100 | > 100 | > 100 | > 100 | > 100 | > 100 | > 100 | > 100 | > 100 | > 100 | > 100 | > 100
Cc1nc2ccc(S(=O)(=O)NS(=O)(=O)c3ccc(-c4ccccc4)cc3)cc2c(=O)n1NS(=O)(=O)c1ccc(-c2ccccc2)cc1 | > 100 | > 100 | > 100 | > 100 | > 100 | > 100 | > 100 | > 100 | > 100 | > 100 | > 100 | > 100 | > 100 | > 100 | > 100 | > 100 | > 100 | > 100 | > 100 | > 100
C[C@H]1C2Cc3cc(O)ccc3[C@@]1(C)CCN2CCc1ccc(N)cc1 | > 100 | 69 | > 100 | 33.3 | > 100 | 33.4 | 73.7 | 66.3 | 34.3 | 32.4 | 28.4 | 47 | 52.6 | 53.7 | > 100 | > 100 | 72.8 | 36 | > 100 | > 100
CCCCCCCCC/C=C1/CC(CO)(COC(=O)CC(C(C)C)C(C)C)OC1=O (stereo not given) | 13.9 | 25 | 20.1 | 29 | 15.4 | 17.4 | 15.8 | 29.1 | 23.1 | 20.4 | 24.4 | 27.6 | 25 | 16.2 | 18 | 18.9 | > 54.2 | 19 | 25.6 | 18.1
CC1(C)OCC(C2OC3OC(C)(C)OC3C2c2ccccc2)O1 (stereo not given) | > 100 | > 100 | > 100 | > 100 | 50 | > 100 | 79 | > 100 | > 100 | 93.9 | > 100 | 91.7 | > 100 | > 100 | > 100 | > 100 | > 100 | > 100 | 87.1 | > 100
CC12CC(=O)Nc3ccccc3N1C(c1ccccc1)=NO2 (stereo not given) | > 100 | > 100 | > 100 | > 100 | > 100 | > 100 | > 100 | > 100 | > 100 | > 100 | > 100 | > 100 | > 100 | > 100 | > 100 | > 100 | > 100 | > 100 | > 100 | > 100
C=C1C[C@@H](O)[C@@H](Br)C(C)(C)[C@@]12C=CC(=O)CC2 | > 100 | > 100 | > 51.8 | > 100 | > 100 | > 100 | > 100 | > 48.3 | 5.31 | > 100 | > 100 | > 100 | > 100 | > 100 | > 100 | > 100 | > 100 | > 100 | > 100 | > 100
CC(=O)O[C@H]1CC[C@@]2(C)C(=CC[C@@H]3[C@@H]2CC[C@]2(C)c4c(n[nH]c4C)C[C@@H]32)C1 | 33.9 | 25.1 | 34.7 | 34.2 | 28.4 | 37.8 | 39.8 | 38.8 | 37.4 | 37.3 | 24.2 | 26.2 | 48.7 | 37.2 | 45.5 | 25.3 | 58.7 | > 100 | 25 | 33.8
Oc1ccc(/C=C/c2cccc(/C=C/c3ccc(O)c(O)c3)n2)cc1O | 22.2 | > 100 | 25.5 | > 100 | 13.4 | > 100 | 25.3 | 19.6 | 36.2 | 16.9 | 25.8 | > 100 | 23.3 | 65.1 | 27.5 | 16.5 | 14.5 | > 100 | 18.6 | 11.2
CC1CN=C(Nc2cccc(F)c2)S1 (stereo not given) | > 100 | > 100 | > 100 | > 100 | > 100 | > 100 | > 100 | > 100 | > 100 | > 100 | > 100 | > 100 | > 100 | > 100 | > 100 | > 100 | > 100 | > 100 | > 100 | > 100
COc1c2c(nc3ccccc13)-c1cc(C(CC(=O)OC(C)(C)C)C(=O)OC(C)C)c(CO)c(=O)n1C2 (stereo not given) | > 100 | > 100 | > 100 | > 100 | > 100 | > 100 | > 100 | > 100 | > 100 | > 100 | 19.3 | > 100 | > 100 | > 100 | > 100 | > 100 | > 100 | > 100 | 98.3 | > 89.5
O=[N+]([O-])C(/C(Cl)=C(\Cl)Br)=C(/Cl)SCc1ccccc1 | 33.5 | 6.25 | 14.5 | 8.53 | 2.18 | 37.5 | 5.34 | 13.1 | 30 | 9.15 | 11.2 | 8.83 | 9.76 | 35.9 | 11.3 | 13.5 | 13.4 | 4.61 | 16.5 | 5.73
O=C(Cn1cc(Br)c(=O)[nH]c1=O)c1ccc(-c2ccccc2)cc1 | > 100 | > 20.2 | > 100 | 39.7 | > 35.1 | 39.2 | 82.5 | > 33.1 | > 26.3 | > 24.1 | > 100 | > 100 | 15.8 | > 100 | > 100 | 6.51 | > 100 | > 100 | > 100 | > 100
O=C1NC(Nc2ccccc2)=N/C1=C\c1c(Cl)cccc1Cl | 52.1 | 54.1 | 47.3 | > 100 | > 100 | > 100 | 39.9 | 62.4 | > 100 | 83.5 | 56 | > 100 | > 100 | > 100 | 46.6 | 42.3 | > 100 | > 100 | > 100 | 18.4
Cc1ccc(-c2c(-c3ccccc3)[nH]c(C)c2C(=O)ONC(=O)c2ccccc2)cc1 | 7.65 | > 27.1 | > 50.3 | 24.1 | 2.02 | 4.66 | 4.09 | 3.15 | 26.4 | 18 | 17.3 | 17.4 | 7.31 | 4.17 | 8.36 | 7.21 | 5.36 | 41.8 | 22.2 | 3.86
N#Cc1c2ccc([N+](=O)[O-])cc2c(=O)n2c1[nH]c1ccc(C(F)(F)F)cc12 | > 100 | > 100 | > 100 | > 100 | > 100 | > 100 | 51.9 | > 100 | > 100 | > 100 | > 100 | 83.4 | > 100 | 66.1 | > 100 | > 100 | > 25.7 | > 100 | > 100 | 56.9
c1ccc2cc3c(NC4=NCCO4)cccc3cc2c1 | > 100 | 81.6 | > 100 | > 100 | 52.1 | > 100 | 74 | > 100 | > 100 | > 100 | > 100 | > 100 | > 100 | > 100 | > 100 | > 100 | > 100 | > 100 | > 100 | > 100
N#[N+]c1c([O-])c2ccccc2c2ccccc12 | > 100 | > 100 | 72.8 | > 100 | > 100 | > 100 | > 100 | > 100 | > 100 | > 100 | > 100 | > 100 | > 100 | > 100 | > 100 | 82.9 | > 100 | > 100 | 69.7 | > 100
O=C1/C(=C\c2ccc(Br)cc2)CCCc2ccccc21 | > 100 | 53 | 39 | 24.8 | 69 | > 100 | 39.8 | 34.4 | 29 | > 100 | > 100 | 65.1 | 37.1 | 52.9 | 32.1 | 52.7 | 58 | 43 | 26.5 | 27.8
CC12CCCCC1=C(F)C(F)(F)S2 (stereo not given) | > 100 | 22.7 | > 100 | 76.7 | 15.3 | > 100 | > 67.9 | > 100 | > 100 | > 83.6 | > 79.6 | 48 | > 100 | > 71.4 | > 75.2 | > 100 | 28 | > 73.7 | > 100 | 24.4
COc1cc(/C=C2\C[C@H]3[C@@H]4CCC5=CC(=O)CC[C@]5(C)[C@H]4CC[C@]3(C)C2=O)cc(OC)c1OC | > 100 | > 100 | > 100 | > 100 | 7.55 | > 66.9 | > 100 | > 100 | > 37.2 | > 42.5 | > 100 | > 49 | > 100 | > 100 | > 100 | > 89.4 | > 100 | > 100 | > 51.4 | > 100
N#CC1=C(N)N(/N=C/c2ccccc2)C(c2ccccc2)C1(C#N)C#N (stereo not given) | 43.1 | 6.12 | 38.3 | 18.7 | 5.47 | 33.1 | 6.54 | 29.1 | > 58.2 | 42.8 | 58.6 | 17.4 | 46 | 39.5 | 31 | 31.6 | 8.5 | 14.5 | 29.5 | 29.7
